The values that follow come from patent US10981872B1, “Di(2-aryl hydrozonopropanal) arene derivatives” (King Abdulaziz University, priority 2020, dated 2021).

For data set [1], the system named is human colon carcinoma HCT-116 cells. Nature of the data set: MTT cell viability assay, HCT-116. The data set is classed as cell-based. The method, then: (§1) Human alveolar basal epithelial cell line (A-549) and human colon carcinoma (HCT-116), purchased from ATCC, USA, were used to evaluate the anticancer properties of the compounds. Cells were routinely cultured in RPMI (Roswell Park Memorial Institute Medium), except HCT-116 cells which were cultured in McCoy's medium. All media were supplemented with 10% fetal bovine serum (FBS), 2 mM L-glutamine, 100 units/ml penicillin G sodium, 100 units/ml streptomycin sulphate, and 250 ng/ml amphotericin B. Cells were maintained at sub-confluency at 37° C. in humidified air containing 5% CO2. For sub-culturing, monolayer cells were harvested after trypsin/EDTA treatment at 37° C. Cells were used when confluence had reached 75%. Tested samples were dissolved in dimethyl sulphoxide (DMSO), and then diluted in the assay to begin with the indicated concentration. All cell culture material was obtained from Cambrex BioScience (Copenhagen, Denmark). All chemicals were from Sigma/Aldrich, USA, unless otherwise indicated. All experiments were repeated three times, unless otherwise indicated.
Cytotoxicity of tested samples was measured against different cancer cells using the MTT Cell Viability Assay. The 3-[4,5-dimethylthiazole-2-yl]-2,5-diphenyltetrazolium bromide (MTT) assay is based on the ability of an active mitochondrial dehydrogenase enzyme of living cells to cleave the tetrazolium rings of the yellow MTT and form dark blue insoluble formazan crystals which are largely impermeable to cell membranes, resulting in its accumulation within healthy cells. Dissolution of the cells results in the liberation of crystals, which are then solubilized. The number of viable cells is directly proportional to the level of soluble formazan dark blue color. The extent of the reduction of MTT was quantified by measuring the absorbance at 570 nm.
MTT solution: 5 mg/ml of MTT in 0.9% NaCl.
Acidified isopropanol: 0.04 N HCl in absolute isopropanol.
Cells (0.5×10^5 cells/well), in serum-free media, were plated in a flat bottom 96-well microplate, and treated with 20 μl of different concentrations of the tested samples for 48 h at 37° C., in a humidified 5% CO2 atmosphere. After incubation, media was removed and 40 μl MTT solution/well were added and the cells were incubated for an additional 4 h. MTT crystals were solubilized by adding 180 μl of acidified isopropanol/well and plates were kept at room temperature, followed by photometric determination of the absorbance at 570 nm using a microplate ELISA reader. Triplicate repeats were performed for each concentration and the average was calculated. Data were expressed as the percentage of relative viability compared with the untreated cells compared with the vehicle control, with cytotoxicity indicated by <100% relative viability
The percentage of relative viability was calculated using the following equation: [Absorbance of treated cells/Absorbance of control cells)]×100 Then the half maximal inhibitory concentration (IC50) was calculated from the equation of the concentration vs % of viability curve. Results and Discussion
Background: Formazan colour is commonly taken as a measure of viable cells.

Data set [2] in a line: MTT cell viability assay, A-549. The data set is classed as cell-based, human. The conditions noted are these: compared to the tumor cell line HCT116. The procedure: as §1, with “Tested samples were dissolved in dimethyl sulphoxide (DMSO), and then diluted in the assay to begin with the indicated concentration. All cell culture material was obtained from Cambrex BioScience (Copenhagen, Denmark). All chemicals were from Sigma/Aldrich, USA, unless otherwise indicated. All experiments were repeated three times, unless otherwise indicated.” left out
(§2) Cytotoxicity of tested samples was measured against different cancer cells using the MTT Cell Viability Assay. […] The extent of the reduction of MTT was quantified by measuring the absorbance at 570 nm. […]
(§3) Cells (0.5×10^5 cells/well), in serum-free media, were plated in a flat bottom 96-well microplate, and treated with 20 μl of different concentrations of the tested samples for 48 h at 37° C., in a humidified 5% CO2 atmosphere. […] MTT crystals were solubilized by adding 180 μl of acidified isopropanol/well and plates were kept at room temperature, followed by photometric determination of the absorbance at 570 nm using a microplate ELISA reader. […]

Data set [3] concerns normal human alveolar basal epithelial cell line (A-549). Description: MTT cell viability assay, A-549. The data set is classed as cell-based. To be noted: A-549 versus HCT116. The procedure:
as §1, with “Tested samples were dissolved in dimethyl sulphoxide (DMSO), and then diluted in the assay to begin with the indicated concentration. All cell culture material was obtained from Cambrex BioScience (Copenhagen, Denmark). All chemicals were from Sigma/Aldrich, USA, unless otherwise indicated. All experiments were repeated three times, unless otherwise indicated.” left out
as §2, §3

Where [4] appears, read: Homo sapiens, HCT-116, 48 h treatment, read-out: IC50 against the colon cancer cell line HCT 116.

Like-named read-outs stand apart in the source and are kept apart here.

For the molecule `Cc1ccc(NN=C(C=O)C(=O)c2ccc(C(=O)/C(C=O)=N/Nc3ccc(C)cc3)cc2)cc1` [Compound 9a], in data set [1] (48 h treatment, read-out: IC50 against the colon cancer cell line HCT 116), the half-inhibitory concentration (IC50) (in general, the concentration that gives 50% inhibition) was determined as 126 nM.
`N#Cc1ccccc1N/N=C(/C=O)C(=O)c1ccc(C(=O)/C(C=O)=N/Nc2ccccc2C#N)cc1` [Compound 9b, 2-(2-((E)-1-(4-((Z)-2-(2-(2-cyanophenyl)hydrazineylidene)-3-oxopropanoyl)phenyl)-1,3-dioxopropan-2-ylidene)hydrazineyl)benzonitrile]: the IC50 in data set [1] (setting [4]) was 299 nM.
Same read-out and setting: as for `Cc1ccc(N/N=C(\C=O)C(=O)c2cccc(C(=O)/C(C=O)=N/Nc3ccc(C)cc3)n2)cc1` [Compound 11a, (2E,2′E)-3,3′-(pyridine-2,6-diyl)bis(3-oxo-2-(2-(p-tolyl)hydrazineylidene)propanal)], the figure is 277 nM.
For the molecule `N#Cc1ccccc1N/N=C(\C=O)C(=O)c1cccc(C(=O)/C(C=O)=N/Nc2ccccc2C#N)n1` [Compound 11b, 2,2′-(((2E,2′E)-pyridine-2,6-diylbis(1,3-dioxopropan-1-yl-2-ylidene))bis(hydrazin-1-yl-2-ylidene))dibenzonitrile], the “Cytotoxic effects on the normal, non-tumorigenic A-549 cell line” value in data set [2] was “only weak cytotoxic effects”. For the same molecule, in data set [3], the Selectivity index result is recorded as “excellent selectivity index”. Further, the half-inhibitory concentration (IC50) in data set [1] (setting [4]) was 98 nM; in data set [1] (Homo sapiens, HCT-116, 48 h treatment, read-out: IC50 for HCT116 cancer cells), 98 ± 30 nM.
In the case of `COc1cccc2c1C(=O)c1c(O)c3c(c(O)c1C2=O)C[C@@](O)(C(=O)CO)C[C@@H]3O[C@H]1C[C@H](N)[C@H](O)[C@H](C)O1` [Doxorubicin, reference compound], in data set [1] (setting [4]), the concentration for half-maximal inhibition (IC50) was found to be 126 nM.
